Source: patent EP1997826A2, “Synthetic ligands for immunoglobulins and pharmaceutical compositions containing them” (Tecnogen S.p.A., priority 2007, dated 2008)
Read-outs that look alike come from different tables or passages of the source.

Legend:
[1] = tested on: male rats of the CD1 species; assay type: in vivo, rat; details: for dose inhibiting the inflammatory reaction completely: rat, intradermal; for Inhibition of skin reaction (%): intradermal with IgE ascitic fluid
Method: Passive cutaneous anaphylaxis in the rat was induced according to the procedure described by Ovary et al., 1952, Int. Arch. Allergy Appl. Immunol. 3:293-301. Rat ascitic fluid containing specific IgE against the ovalbumin antigen was injected in the shaved back of male rats of the CD1 species (Charles River, Italy). Ascitic fluid at different dilutions (from 20 to 20 000 times in PBS) was applied by intradermal injections at a volume of 50 µl, permitting the IgEs present in the ascitic fluid to bind to the FcεRs of the local mast cells, sensitizing them. On the next day, 1 mg of ovalbumin and the dye Evans Blue at a concentration of 2.0%, dissolved in 1 ml of PBS, were injected intravenously. After 30 minutes, the appearance, on the rats' backs, of stained areas in the dermis (wheals) with extent and intensity of staining proportional to the quantity of antigen-specific IgEs injected with the ascitic fluid, was observed. The experiment included a negative control, represented by the intradermal injection of 50 µl of PBS without ascitic fluid, and there was no corresponding appearance of staining. The rats were sacrificed and comparative evaluation of the dimensions and intensity of coloration of the wheals that developed was carried out by densitometric analysis of colour photographs of the animals taken with a single camera, a single film and in the same conditions of exposure times, lighting and orientation. The densitometric analyses were performed with the aid of the IMAGE PRO-PLUS software (Media Cybernetics, Inc.). On the basis of the results obtained in the IgE-FcεR linear binding assay (absence of inhibitors), selecting as reference point the value of dilution of the ascitic fluid at which the most intense inflammatory reaction was observed (the wheal with most intense staining, and consequently the maximum signal on the densitometer), an assay of inhibition of the allergic reaction was performed using peptide lB and the comparative peptide. For this purpose, 25 µl of ascitic fluid containing IgE suitably diluted was incubated with 25 µl of PBS containing different doses of the test compounds (0.025, 0.25, 2.5, 25, 250 and 2500 µg). A single rat was used for each compound. The back of each rat was shaved and was then subdivided into 8 sections by making marks to delimit the zones in which the injections were made. The mixture (50 µl) containing the ascitic fluid and the compounds at the various doses was administered intradermally at each selected point. An injection of 25 µl of ascitic fluid suitably diluted and incubated with 25 µl of PBS was used as the positive control, and 50 µl of PBS was used as the negative control. After 24 hours, the antigen was injected together with the Evans Blue dye as previously described and thirty minutes later, corresponding to the injection sites on the rats' backs, the appearance of coloured wheals was observed, with intensity and dimensions markedly less than in the zones in which higher concentrations of compounds had been applied.

[2] = tested on: female mice of the Balb/c strain; assay type: in vivo, mouse; details: for dose producing 50% inhibition of the local allergic reaction: mouse, intraperitoneally; for Inhibition of skin reaction (%): 30 minutes before antigen
Method: Cutaneous passive anaphylaxis on the mouse ear was induced according to the procedure described by Inagaki et al., Int. Arch. Allergy Appl. Immunol. 1985, 78:113-117. Rat ascitic fluid containing specific IgEs against the ovalbumin antigen was injected in the ear of female mice of the Balb/c strain. Ascitic fluid at different dilutions (5-10-20 times in PBS) was applied by intradermal injections at a volume of 10 µl, permitting the IgEs present in the ascitic fluid to bind to the FcεRs of the local mast cells, sensitizing them. After 48 hours, 0.25 mg of ovalbumin and Evans Blue dye at a concentration of 1.8%, dissolved in 70 µl of PBS, were injected intravenously. After 30 minutes, the appearance, on the mouse ear, of stained areas in the dermis, with extent and intensity of staining proportional to the quantity of antigen-specific IgEs injected with the ascitic fluid, was observed. The experiment included a negative control, represented by the intradermal injection of 10 µl of PBS without ascitic fluid, and there was no corresponding appearance of staining. The mice were sacrificed and the ears were removed for extraction and measurement of the dye discharged in the skin reaction. Each ear was dissolved in 0.5 ml of 1 M KOH, incubating at 37°C for 16 hours. After incubation, 2 ml of a mixture of 0.6M phosphoric acid and acetone in the ratio 5:13 (v:v) was added. The sample was then stirred and filtered, and finally the amount of dye was determined with a spectrophotometer, taking readings at 620 nm. On the basis of the results obtained in the IgE-FcER linear binding assay, selecting as reference point the value of dilution of the ascitic fluid at which the most intense inflammatory reaction was observed, an assay of inhibition of the allergic reaction was performed using peptide IB and the comparative peptide. As described previously, intradermal injections of 10 µl of ascitic fluid, diluted 20 times in PBS, were applied to the ear lobe of a group of Balb/c mice, permitting the IgEs present in the ascitic fluid to bind to the FcεRs of the local mast cells, sensitizing them. After two days, various amounts of the peptides under investigation were dissolved in 100 µl of PBS and administered intraperitoneally to the sensitized mice. In particular, doses corresponding to 0.5 - 1 - 5 - 10 - 50 mg of peptide per kg of body weight of the mouse were used. 100 µl of PBS was injected as negative control. After 30 minutes the mice received the intravenous injection of the solution of ovalbumin and Evans Blue dye.

[3] = molar value printed in brackets

Row | Molecule | dose inhibiting the inflammatory reaction completely [1] [µg] | dose inhibiting the inflammatory reaction completely [1, 3] | dose producing 50% inhibition of the local allergic reaction [2] | Inhibition of skin reaction (%) ([1]; Dose of Peptide 0.025 (µg/ml)) | Inhibition of skin reaction (%) ([1]; Dose of Peptide 0.25 (µg/ml)) | Inhibition of skin reaction (%) ([1]; Dose of Peptide 2.5 (µg/ml)) | Inhibition of skin reaction (%) ([1]; Dose of Peptide 25 (µg/ml)) | Inhibition of skin reaction (%) ([1]; Dose of Peptide 250 (µg/ml)) | Inhibition of skin reaction (%) ([1]; Dose of Peptide 2500 (µg/ml)) | activity greater than the activity of the comparative peptide ([1]; rat passive cutaneous anaphylaxis) | Inhibition of skin reaction (%) ([2]; Dose of Peptide 0.5 mg/kg intraperitoneally) | Inhibition of skin reaction (%) ([2]; Dose of Peptide 1.0 mg/kg intraperitoneally) | Inhibition of skin reaction (%) ([2]; Dose of Peptide 5.0 mg/kg intraperitoneally) | Inhibition of skin reaction (%) ([2]; Dose of Peptide 10.0 mg/kg intraperitoneally) | Inhibition of skin reaction (%) ([2]; Dose of Peptide 50.0 mg/kg intraperitoneally) | activity greater than the activity of the comparative peptide ([2]; mouse ear passive cutaneous anaphylaxis)
1 | C[C@H](O)[C@@H](NC(=O)[C@H](N)CCCNC(=N)N)C(=O)N[C@H](Cc1ccc(O)cc1)C(=O)NCCCC[C@H](NC(=O)[C@@H](Cc1ccc(O)cc1)NC(=O)[C@H](NC(=O)[C@H](N)CCCNC(=N)N)[C@H](C)O)C(=O)NCCCC[C@H](NC(=O)[C@H](CCCCNC(=O)[C@@H](Cc1ccc(O)cc1)NC(=O)[C@H](NC(=O)[C@H](N)CCCNC(=N)N)[C@H](C)O)NC(=O)[C@@H](Cc1ccc(O)cc1)NC(=O)[C@H](NC(=O)[C@H](N)CCCNC(=N)N)[C@H](C)O)C(=O)NCC(=O)O [Comparative peptide, (H-D-Arg-D-Thr-D-Tyr-)4-L-Lys2-L-Lys-Gly-OH, reference compound] | 25 | 11.6 nmol | about 7 mg/kg |  |  |  |  |  |  |  |  |  |  |  |  | 
2 | (H-L-Cys(p-MeOBzl)-D-Arg-D-Thr-D-Tyr)4-L-Lys2-L-Lys-L-Lys-OH [Peptide IB] | 2.5 | approx. 0.8 nmoles | 1 mg/kg | 35 | 60 | 100 | 100 | 100 | 100 | approx. 15 times | 10 | 50 | 65 | 71 | 85 | about 7 times
